Laboratory results: ChEMBL document CHEMBL1201862, “PubChem BioAssay data set” (2004)
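Cultured in 96-well plates, cells were exposed to test compound for 48 hours across five concentrations. Abbreviation: GI50, concentration required for 50% inhibition of growth.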 Activity calls are given as the source filed them. Rule as the data show it: active = GI50 up to about 1.1 µM and inactive = higher.

Legend:
Test in all cases: inhibition of tumour cell growth, NCI panel, 48 h
[1] = system: 786-0
[2] = system: LOX IMVI
[3] = system: HT-29
[4] = system: COLO 205
[5] = system: SNB-78
[6] = system: IGROV-1
[7] = system: DMS-114
[8] = system: OVCAR-8
[9] = system: HCT-15
[10] = system: SN12C
[11] = system: XF498
[12] = system: UACC-257
[13] = system: HOP-62
[14] = system: CCRF-CEM
[15] = system: K562
[16] = system: RXF 393
[17] = system: A549
[18] = system: SR
[19] = system: M14
[20] = system: TK-10
[21] = system: SK-OV-3
[22] = system: DMS-273
[23] = system: UO-31
[24] = system: KM-20L2
[25] = system: NCI-H23
[26] = system: SW-620
[27] = system: DLD-1
[28] = system: HOP-92
[29] = system: Malme-3M
[30] = system: MOLT-4
[31] = system: SNB-75
[32] = system: NCI-H226
[33] = system: U-251
[34] = system: HCC 2998
[35] = system: SF-268
[36] = system: RPMI-8226
[37] = system: OVCAR-5
[38] = system: SF-295
[39] = system: SK-MEL-28
[40] = system: ACHN
[41] = system: HCT-116
[42] = system: EKVX
[43] = system: LXFL 529
[44] = system: A498
[45] = system: M19-MEL
[46] = system: OVCAR-4
[47] = system: NCI-H460
[48] = system: HOP-18
[49] = system: UACC-62
[50] = system: SK-MEL-5
[51] = system: OVCAR-3
[52] = system: CAKI-1
[53] = system: SF-539
[54] = system: SNB-19
[55] = system: MDA-MB-231
[56] = system: DU-145
[57] = system: KM12
[58] = system: BT-549
[59] = system: NCI/ADR-RES
[60] = system: HL-60
[61] = system: NCI-H522
[62] = system: Hs-578T
[63] = system: PC-3
[64] = system: MDA-MB-435
[65] = system: MDA-N
[66] = system: T47D
[67] = system: SK-MEL-2
[68] = system: MCF7

COC(=O)C1=C(c2ccc3c(c2)OCO3)OC(c2cc(OC)c(OC)c(OC)c2)C1 (stereo unspecified)
GI50 [1]: 3.61 µM (inactive) | GI50 [2]: 5.68 µM (inactive) | GI50 [3]: 1.29 µM (inactive) | GI50 [4]: 1.2 µM (inactive) | GI50 [5]: 10.4 µM (inactive) | GI50 [6]: 2.75 µM (inactive) | GI50 [7]: 2.49 µM (inactive) | GI50 [8]: 4.17 µM (inactive) | GI50 [9]: 0.664 µM | GI50 [10]: 4.5 µM (inactive) | GI50 [11]: 14.5 µM (inactive) | GI50 [12]: 7.18 µM (inactive) | GI50 [13]: > 100 µM (inactive) | GI50 [14]: 3.88 µM (inactive) | GI50 [15]: 0.883 µM (active) | GI50 [16]: 2.81 µM (inactive) | GI50 [17]: 5.77 µM (inactive) | GI50 [18]: 0.667 µM (active) | GI50 [19]: 3.53 µM (inactive) | GI50 [20]: 5.2 µM (inactive) | GI50 [21]: 2.28 µM (inactive) | GI50 [22]: 1.89 µM (inactive) | GI50 [23]: 8.26 µM (inactive) | GI50 [24]: 1.57 µM (inactive) | GI50 [25]: 3.21 µM (inactive) | GI50 [26]: 0.557 µM (active) | GI50 [27]: 3.58 µM (inactive) | GI50 [28]: 5.75 µM (inactive) | GI50 [29]: 4.74 µM (inactive) | GI50 [30]: 6.44 µM (inactive) | GI50 [31]: 2.72 µM (inactive) | GI50 [32]: 3.81 µM (inactive) | GI50 [33]: 2.34 µM (inactive) | GI50 [34]: 5.77 µM (inactive) | GI50 [35]: 31.6 µM (inactive) | GI50 [36]: 8.87 µM (inactive) | GI50 [37]: > 100 µM (inactive) | GI50 [38]: 1.5 µM (inactive) | GI50 [39]: > 100 µM (inactive) | GI50 [40]: 6.98 µM (inactive) | GI50 [41]: 2.88 µM (inactive) | GI50 [42]: 2.82 µM (inactive) | GI50 [43]: 4.79 µM (inactive) | GI50 [44]: 2.43 µM (inactive) | GI50 [45]: 4.86 µM (inactive) | GI50 [46]: 4.83 µM (inactive) | GI50 [47]: 3.49 µM (inactive) | GI50 [48]: 16.3 µM (inactive) | GI50 [49]: 1.81 µM (inactive) | GI50 [50]: 2.49 µM (inactive) | GI50 [51]: 1.43 µM (inactive) | GI50 [52]: 2.12 µM (inactive) | GI50 [53]: 5.11 µM (inactive) | GI50 [54]: 1.59 µM (inactive)

CN(C)CCNc1ccc2ncn3c4ccc(O)cc4c(=O)c1c23
GI50 [1]: 0.612 µM (active) | GI50 [2]: 0.543 µM (active) | GI50 [3]: 1.06 µM (active) | GI50 [4]: 0.698 µM (active) | GI50 [55]: 1.67 µM (inactive) | GI50 [5]: 3.03 µM (inactive) | GI50 [6]: 1.09 µM (active) | GI50 [7]: 0.526 µM (active) | GI50 [8]: 0.646 µM (active) | GI50 [56]: 0.315 µM (active) | GI50 [9]: 0.715 µM | GI50 [57]: 1.95 µM (inactive) | GI50 [58]: 14.2 µM (inactive) | GI50 [59]: 3 µM (inactive) | GI50 [10]: 0.562 µM (active) | GI50 [11]: 4.13 µM (inactive) | GI50 [12]: 5.74 µM (inactive) | GI50 [13]: 0.153 µM (active) | GI50 [14]: 0.171 µM (active) | GI50 [60]: 0.647 µM (active) | GI50 [15]: 0.762 µM (active) | GI50 [16]: 0.617 µM (active) | GI50 [17]: 0.0661 µM (active) | GI50 [61]: 0.409 µM (active) | GI50 [19]: 1.63 µM (inactive) | GI50 [62]: 1.18 µM (inactive) | GI50 [20]: 2.66 µM (inactive) | GI50 [21]: 1.29 µM (inactive) | GI50 [22]: 0.317 µM (active) | GI50 [23]: 0.845 µM (active) | GI50 [24]: 2.38 µM (inactive) | GI50 [25]: 0.614 µM (active) | GI50 [63]: 1.42 µM (inactive) | GI50 [26]: 0.281 µM (active) | GI50 [27]: 1.08 µM (active) | GI50 [28]: 2.54 µM (inactive) | GI50 [29]: 2.64 µM (inactive) | GI50 [30]: 0.0258 µM (active) | GI50 [31]: 0.404 µM (active) | GI50 [64]: 2.41 µM (inactive) | GI50 [32]: 0.476 µM (active) | GI50 [33]: 0.214 µM (active) | GI50 [34]: 2.12 µM (inactive) | GI50 [65]: 2.88 µM (inactive) | GI50 [35]: 0.893 µM (active) | GI50 [36]: 0.735 µM (active) | GI50 [37]: 3.38 µM (inactive) | GI50 [38]: 1.39 µM (inactive) | GI50 [39]: 4.53 µM (inactive) | GI50 [40]: 0.158 µM (active) | GI50 [41]: 0.272 µM (active) | GI50 [42]: 5.22 µM (inactive) | GI50 [43]: 1.41 µM (inactive) | GI50 [44]: 0.745 µM (active) | GI50 [45]: 1.09 µM (active) | GI50 [46]: 1.04 µM (active) | GI50 [66]: 10.2 µM (inactive) | GI50 [47]: 0.0871 µM (active) | GI50 [67]: 3.79 µM (inactive) | GI50 [48]: 10.6 µM (inactive) | GI50 [49]: 3.44 µM (inactive) | GI50 [50]: 0.714 µM (active) | GI50 [68]: 0.0832 µM (active) | GI50 [51]: 3.04 µM (inactive) | GI50 [52]: 0.224 µM (active) | GI50 [53]: 0.46 µM (active) | GI50 [54]: 0.92 µM (active)

CC(=O)OC1CCn2nnc(CO)c21 (stereo unspecified)
GI50 [1]: > 100 µM (inactive) | GI50 [3]: > 100 µM (inactive) | GI50 [4]: > 100 µM (inactive) | GI50 [5]: > 100 µM (inactive) | GI50 [6]: > 100 µM (inactive) | GI50 [7]: > 100 µM (inactive) | GI50 [8]: > 100 µM (inactive) | GI50 [9]: > 100 µM | GI50 [57]: > 100 µM (inactive) | GI50 [10]: > 100 µM (inactive) | GI50 [11]: > 100 µM (inactive) | GI50 [12]: > 100 µM (inactive) | GI50 [15]: > 100 µM (inactive) | GI50 [16]: > 100 µM (inactive) | GI50 [17]: > 100 µM (inactive) | GI50 [18]: > 100 µM (inactive) | GI50 [61]: > 100 µM (inactive) | GI50 [20]: > 100 µM (inactive) | GI50 [21]: > 100 µM (inactive) | GI50 [22]: > 100 µM (inactive) | GI50 [23]: > 100 µM (inactive) | GI50 [24]: > 100 µM (inactive) | GI50 [25]: > 100 µM (inactive) | GI50 [26]: > 100 µM (inactive) | GI50 [27]: > 100 µM (inactive) | GI50 [28]: > 100 µM (inactive) | GI50 [29]: > 100 µM (inactive) | GI50 [30]: > 100 µM (inactive) | GI50 [31]: 23.8 µM (inactive) | GI50 [32]: > 100 µM (inactive) | GI50 [33]: > 100 µM (inactive) | GI50 [34]: > 100 µM (inactive) | GI50 [36]: > 100 µM (inactive) | GI50 [37]: > 100 µM (inactive) | GI50 [38]: > 100 µM (inactive) | GI50 [39]: > 100 µM (inactive) | GI50 [41]: > 100 µM (inactive) | GI50 [42]: > 100 µM (inactive) | GI50 [43]: > 100 µM (inactive) | GI50 [45]: > 100 µM (inactive) | GI50 [46]: > 100 µM (inactive) | GI50 [47]: > 100 µM (inactive) | GI50 [67]: > 100 µM (inactive) | GI50 [48]: > 100 µM (inactive) | GI50 [49]: > 100 µM (inactive) | GI50 [50]: > 100 µM (inactive) | GI50 [51]: > 100 µM (inactive) | GI50 [52]: > 100 µM (inactive) | GI50 [53]: 58.5 µM (inactive) | GI50 [54]: > 100 µM (inactive)
